Tested on: HeLa cells
Assay: Comet assay (DNA damage), HeLa
Type: cell-based, human
Set-up: Olive Tail Moment (Mean) / Tail Moment (Mean): unit not given here
Details: for percentage of tail DNA and tail moment: 10 μM, 1, 3, 6, 12 h; for Olive Tail Moment (Mean) / Tail Moment (Mean) / %Tail DNA (Mean): 10 µM; for Olive Tail Moment (Mean): control 5.539; for Tail Moment (Mean): control 9.081; for %Tail DNA (Mean): control 28.414, alkaline electrophoresis, Vista Green
Experimental: The DNA damage assay was performed using a comet assay kit 96-well plate (Cell Bio Labs, CA, USA) as per the manufacturer’s instructions. Briefly, the cell suspension was mixed with the low-melting agarose at 1:20 ratio and added to the pre-coated 96 well plate. The cells were then subjected to lysis for 1 h, followed by alkaline electrophoresis. The plate was then washed in 70% ethanol and Vista Green DNA dye was added. The comets were visualized in Zeiss LSM780 Confocal microscope. The images were processed using Zeiss ZEN lite software and the comet parameters were measured using Open comet software.
Adriamycin is well known to induce DNA damage. Given the critical role of CARP-1 in apoptotic signaling by Adriamycin and CFM compounds, and the fact that stress-activated protein kinases (SAPKs) p38 and JNKs are activated in apoptosis signaling by CFM-4.16 [6, 12, 13, 14, 15, 16, 17, 18], we next determined whether CFM-4.16 also provoked DNA damage. We treated MDA-MB-468 and HeLa cells with a 10 μM dose of Adriamycin or CFM-4.16 for 1, 3, 6, and 12 h, followed by assessment of damaged DNA by the comet assay as described in Section 2. The presence of comet-like tails that contain the fragmented cellular DNA is a well-known marker/indicator of apoptosis. We measured the comet parameters such as percentage tail DNA and mean tail moment. […] Of note is the fact that Adriamycin and related anthracyclines intercalate between DNA bases and trap topoisomerase II (TopoII) in the double-strand cleavage form, thus introducing double-strand breaks (DSBs) due to TopoII poisoning. It remains to be clarified whether CFM-4.16 also targets cellular DNA and/or the associated DNA repair complex protein(s) to introduce DNA strand breaks, or activates caspase-activated DNAses to breakdown cellular genomic DNA.
Figure 2 Adriamycin and CFM-4.16 induce DNA damage. Cells were treated with the noted dose of respective compound for indicated time periods. Mean values for percentage tail DNA content (A,C) and Olive tail moment (B,D) for respective cells from control and treatment periods for each compound were measured using software recommended by the manufacturer of the kit for measurement of DNA damage (Cell Bio Labs, CA, USA). The columns in each chart indicate average values for respective treatment condition; bars, SE; * p ≤ 0.05.
Table S1. Adriamycin and CFM-4.16 stimulate DNA Damage in a time-dependent manner. MDA-MB-468 and HeLa cells were with noted dose of respective compound for indicated time periods.
Mean values for % tail DNA, Tail moment, and Olive tail moment for respective cells from control and treatment periods for each compound were measured using software recommended by the manufacturer of the kit for measurement of DNA damage (Cell Bio Labs, San Diego, CA, USA). The p values for each of the parameter are indicated below the mean values in each column for the treatment time period with each compound for both the cell lines.
Adriamycin (10 µM) CFM-4.16 (10 µM)

Structure (SMILES)	percentage of tail DNA and tail moment	Olive Tail Moment (Mean) (1 h)	Tail Moment (Mean) (1 h)	%Tail DNA (Mean) (1 h)	Olive Tail Moment (Mean) (3 h)	Tail Moment (Mean) (3 h)	%Tail DNA (Mean) (3 h)	Olive Tail Moment (Mean) (6 h)	Tail Moment (Mean) (6 h)	%Tail DNA (Mean) (6 h)	Olive Tail Moment (Mean) (12 h)	Tail Moment (Mean) (12 h)	%Tail DNA (Mean) (12 h)
COc1cccc2c1C(=O)c1c(O)c3c(c(O)c1C2=O)C[C@@](O)(C(=O)CO)C[C@@H]3O[C@H]1C[C@H](N)[C@H](O)[C@H](C)O1 [Adriamycin, doxorubicin, reference compound]	significantly increased	18.8	32.09	40.8%	39.9	61.8	76.74%	47.9	79.11	84.98%	60.49	102.2	93.4%
O=C1N(Cc2ccccc2Cl)c2ccccc2C12NN=C(c1cccc(Cl)c1)S2 (centres unmarked) [CFM-4.16]	significantly increased	10.9	16.526	27.297%	15.4	26.7	34.45%	32.73	47.54	53.24%	41.02	76.03	69.61%

Source: PMC6406907, “A H2AX–CARP-1 Interaction Regulates Apoptosis Signaling Following DNA Damage” (Cancers, 2019)
